Test results taken from patent US6407126B1 (priority 1997, dated 2002).
Read-outs that look alike come from different tables or passages of the source.

Test system: Phytophthora infestans
Type: in vivo
Settings: tomato leaves, infected next day, evaluated after 6 days
[1] = 50 ppm active ingredient in the spray liquor
[2] = 100 ppm active ingredient in the spray liquor

Compound | Efficacy in % of the untreated control (12.5 ppm active ingredient in the spray liquor) [%] | Efficacy in % of the untreated control (25 ppm active ingredient in the spray liquor) [%] | Efficacy in % of the untreated control [1] [%] | Efficacy in % of the untreated control [2] [%]
manganese ethylenebis(dithiocarbamate) (zinc complex) [Compound IIa] | 70 |  |  | 
CC1(c2ccc(Oc3ccccc3)cc2)OC(=O)N(Nc2ccccc2)C1=O (stereo not drawn) [Compound VI] |  | 70 | 70 | 80
O=C(Nc1ccccc1-c1ccc(F)cc1)c1cccnc1Cl [Compound I.1] |  |  | 0 | 0
